In US7847132B2, “Hepatic fibrosis inhibitor” (Nippon Hypox Laboratories Incorporated, priority 2008, dated 2010):
Marks after values point to notes of the source that are not given here.

Key:
[1] = tested on: rat model with carbon tetrachloride-induced liver cirrhosis; assay: Rat model with carbon tetrachloride-induced liver cirrhosis, Experimental Example 2 (compound 1 0.1 mg/mL in potable water); type: in vivo; settings: for HA / ALB / ALT / AST / T-Bil: blood; for HA / ALB / ALT / AST / T-Bil / Body weight / Hepatic relative weight / Pancreatic relative weight / Number of animals with ascites retention: n = 10
Method: (§1) To six-week-old Wister male rats, 3 mL/kg of olive oil containing 40% of carbon tetrachloride or olive oil only were subcutaneously administered twice per week for eight weeks. On a parallel with the administration of the carbon tetrachloride, potable water in which 2,3,5-trimethyl hydroquinone-1-hexylether (compound 1) of the hydroquinone derivative identified by the aforementioned general chemical formula (1) is dissolved at a concentration of 0.3 mg/mL was given to one group of rats daily. Simultaneously, to another groups of rats, only water was given.
(§2) There were adopted four animal groups, i.e. olive oil administration group, olive oil-plus-compound 1 administration group, carbon tetrachloride administration group, and carbon tetrachloride-plus-compound 1 administration group, in the experimental example. Each group consists of ten animals. The animals were slaughtered eight weeks after start of administration of the carbon tetrachloride to carry out an examination. The examination items include ELISA measurement of the serum antibody valency of Naofen and RT-PCR measurement of the mRNA-expression level of Naofen in the liver.
An experimental examination was carried out with a rat model with carbon tetrachloride-induced liver cirrhosis in the same manner as the aforementioned experimental Example 1 except for use of the compound 1 with a concentration of 0.1 mg/mL. The examination includes measurements of some hepatic damage indexes such as blood AST, ALT, albumin (ALB) and total bilirubin (T-Bil), measurement of hyaluronan (HA) concentration serving as a maker of hepatic fibrosis, autopsy finding, measurements of body weight and organ weight, measurements of expression levels of TGF-β1 mRNA and type-I collagen mRNA in biologic cells by RT-PCR, and a histopathologic inspection.
The examination results of measurements of the liver weight, spleen weight, and number of animals with ascites retention are shown in Table 3. FIGS. 4 and 5 are photographs of hepatic tissues taken by using a Masson staining method and an immunohistochemical staining method (A: olive oil administration case, B: carbon tetrachloride administration case, C: olive oil-plus-compound 1 administration case, and D: carbon tetrachloride-plus-compound 1 administration case; and horizontal line on the bottom right: 100 μm).

[2] = tested on: rat model with carbon tetrachloride-induced liver cirrhosis; assay: Rat model with carbon tetrachloride-induced liver cirrhosis, Experimental Example 1 (compound 1 0.3 mg/mL in potable water); type: in vivo
Method: as §1, §2

[3] = CCl4 + Compound 1 0.1 mg/mL in potable water, 8 weeks, mean ± SD
[4] = CCl4 + compound 1 0.1 mg/mL, result in words
[5] = Olive Oil + Compound 1 0.1 mg/mL in potable water, 8 weeks, mean ± SD
[6] = Olive Oil + Compound 1 0.1 mg/mL in potable water, 8 weeks
[7] = HX (+) group, 0.3 mg/mL in potable water, 8 weeks, total 7 animals

ALB [1, 5]: 4.3 ± 0.1 g/dL
HA [1, 5]: 136.7 ± 16.6 ng/mL
T-Bil [1, 6]: 0 mg/dL
Number of animals with ascites retention [1, 6]: 0
abnormality in olive oil-plus-compound 1 administration group ([1]; olive oil + compound 1 0.1 mg/mL in potable water, 8 weeks): no appreciable abnormality
abnormality in olive oil-plus-compound 1 administration group ([2]; olive oil + compound 1 0.3 mg/mL in potable water, 8 weeks): no appreciable abnormality
SMILES: CCCCCCOc1cc(C)c(O)c(C)c1C [Compound 1, 2,3,5-trimethyl hydroquinone-1-hexylether]
HA ([1]; CCl4 + Compound 1 0.1 mg/mL in potable water, 8 weeks, marker of hepatic fibrosis, mean ± SD): 237.7 ± 36.6*^+ ng/mL
ALB [1, 3]: 3.8 ± 0.2*^+ g/dL
ALT [1, 3]: 422.4 ± 60.5**^++ IU/L
AST [1, 3]: 603.6 ± 126.3**^++ IU/L
T-Bil [1, 3]: 0.03 ± 0.02^+ mg/dL
Body weight [1, 3]: 240.8 ± 8.7 g
Hepatic relative weight [1, 3]: 16.1 ± 1.8^+ g (per 100 grams of body weight)
Pancreatic relative weight [1, 3]: 0.28 ± 0.01^+ g (per 100 grams of body weight)
Number of animals with ascites retention ([1]; CCl4 + Compound 1 0.1 mg/mL in potable water, 8 weeks): 1
increase in TGF-β1 mRNA-expression level in the liver (RT-PCR) ([1]; CCl4 + compound 1 0.1 mg/mL, FIG. 2): suppressing increase
increase in type-I collagen mRNA-expression level in the liver (RT-PCR) ([1]; CCl4 + compound 1 0.1 mg/mL, FIG. 3): suppressing increase
accumulation of fibrous tissue (histopathologic inspection, Masson staining) ([1]; CCl4 + compound 1 0.1 mg/mL, hepatic tissue, FIG. 4): suppressed
expression of TGF-β1 (histopathologic inspection, immunohistochemical staining) ([1]; CCl4 + compound 1 0.1 mg/mL, hepatic tissue, FIG. 5): suppressed
increase in ALT due to administration of carbon tetrachloride [1, 4]: suppressing increase
increase in AST due to administration of carbon tetrachloride [1, 4]: suppressing increase
increase in hyaluronan concentration due to administration of carbon tetrachloride [1, 4]: suppressing increase
ALT [1, 5]: 93.7 ± 34.1 IU/L
AST [1, 5]: 192.7 ± 93.4 IU/L
Body weight [1, 5]: 361.5 ± 1.5 g
Hepatic relative weight [1, 5]: 14.8 ± 1.5 g (per 100 grams of body weight)
Pancreatic relative weight [1, 5]: 0.20 ± 0.01 g (per 100 grams of body weight)
increase in mRNA-expression level of Naofen in the liver (RT-PCR) ([2]; CCl4 + compound 1 0.3 mg/mL in potable water, weeks 6(+), weeks 8(+), FIG. 1): suppressed
number of animals with serum antibody valency of Naofen 4 < V < 16 (ELISA) [2, 7]: 1
number of animals with serum antibody valency of Naofen V <= 4 (ELISA) [2, 7]: 4
number of animals with serum antibody valency of Naofen V >= 16 (ELISA) [2, 7]: 2
antibody valency increase more than 16 times, compound 1 group (+) versus group (−), Fischer direct probability ([2]; serum antibody valency of Naofen, 0.3 mg/mL in potable water): significantly fewer
